According to the supplement of paper PMC12463676, “Small-molecule dissolution of stress granules by redox modulation benefits ALS models” (Nature Chemical Biology, 2025):

compound: O=[As]([O-])(O)O.[K+] [potassium arsenate]; assay: thermal stability z-score vs DMSO; higher = more thermally stabilized by treatment; conditions: HeLa; arsenate concentration 1 mM
Experimental: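 Cellular thermal proteome profiling in HeLa cells treated with 1 mM arsenate for 1 h (DMSO pretreatment), heated to ten temperatures (37-66.3 °C). Soluble protein was quantified by TMT mass spectrometry relative to DMSO controls; the thermal stability score was transformed to a z-score; mean of n = 3 experiments.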
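Also: each temperature applied for 3 min, abundance score taken as mean log2 fold change at the two lowest temperatures, z-score obtained by mean subtraction and division by SD.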

Sequence of UniProt Q86XL3 (Q86XL3 whole entry): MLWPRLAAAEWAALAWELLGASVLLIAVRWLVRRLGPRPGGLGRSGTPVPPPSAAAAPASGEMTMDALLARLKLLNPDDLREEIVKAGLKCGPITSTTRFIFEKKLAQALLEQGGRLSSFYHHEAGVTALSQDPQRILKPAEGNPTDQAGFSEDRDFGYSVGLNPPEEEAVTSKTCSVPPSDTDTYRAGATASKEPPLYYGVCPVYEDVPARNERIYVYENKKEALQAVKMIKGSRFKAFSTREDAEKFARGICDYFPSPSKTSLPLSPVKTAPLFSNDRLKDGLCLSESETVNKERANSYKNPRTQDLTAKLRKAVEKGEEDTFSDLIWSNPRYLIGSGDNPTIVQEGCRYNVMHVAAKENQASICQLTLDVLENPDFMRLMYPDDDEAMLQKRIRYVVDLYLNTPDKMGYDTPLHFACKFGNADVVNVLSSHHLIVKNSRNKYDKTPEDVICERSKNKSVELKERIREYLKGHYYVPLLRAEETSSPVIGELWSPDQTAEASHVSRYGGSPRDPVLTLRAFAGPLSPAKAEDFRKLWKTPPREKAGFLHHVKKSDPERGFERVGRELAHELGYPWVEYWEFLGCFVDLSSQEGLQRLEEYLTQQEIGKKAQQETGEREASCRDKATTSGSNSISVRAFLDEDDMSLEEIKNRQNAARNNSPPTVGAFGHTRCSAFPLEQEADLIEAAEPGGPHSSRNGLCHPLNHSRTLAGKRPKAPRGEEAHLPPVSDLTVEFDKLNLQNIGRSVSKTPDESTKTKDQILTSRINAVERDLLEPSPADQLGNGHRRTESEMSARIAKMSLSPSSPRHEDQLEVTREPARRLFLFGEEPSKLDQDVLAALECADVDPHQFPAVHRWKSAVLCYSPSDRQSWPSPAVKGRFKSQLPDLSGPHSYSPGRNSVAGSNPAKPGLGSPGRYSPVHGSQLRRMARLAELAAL
Sequence of UniProt Q9UII2 (Q9UII2 whole entry): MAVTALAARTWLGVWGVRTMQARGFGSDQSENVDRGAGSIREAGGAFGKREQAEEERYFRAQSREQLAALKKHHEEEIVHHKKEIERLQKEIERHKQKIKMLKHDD
Sequence of UniProt Q5HYK7 (Q5HYK7 whole entry): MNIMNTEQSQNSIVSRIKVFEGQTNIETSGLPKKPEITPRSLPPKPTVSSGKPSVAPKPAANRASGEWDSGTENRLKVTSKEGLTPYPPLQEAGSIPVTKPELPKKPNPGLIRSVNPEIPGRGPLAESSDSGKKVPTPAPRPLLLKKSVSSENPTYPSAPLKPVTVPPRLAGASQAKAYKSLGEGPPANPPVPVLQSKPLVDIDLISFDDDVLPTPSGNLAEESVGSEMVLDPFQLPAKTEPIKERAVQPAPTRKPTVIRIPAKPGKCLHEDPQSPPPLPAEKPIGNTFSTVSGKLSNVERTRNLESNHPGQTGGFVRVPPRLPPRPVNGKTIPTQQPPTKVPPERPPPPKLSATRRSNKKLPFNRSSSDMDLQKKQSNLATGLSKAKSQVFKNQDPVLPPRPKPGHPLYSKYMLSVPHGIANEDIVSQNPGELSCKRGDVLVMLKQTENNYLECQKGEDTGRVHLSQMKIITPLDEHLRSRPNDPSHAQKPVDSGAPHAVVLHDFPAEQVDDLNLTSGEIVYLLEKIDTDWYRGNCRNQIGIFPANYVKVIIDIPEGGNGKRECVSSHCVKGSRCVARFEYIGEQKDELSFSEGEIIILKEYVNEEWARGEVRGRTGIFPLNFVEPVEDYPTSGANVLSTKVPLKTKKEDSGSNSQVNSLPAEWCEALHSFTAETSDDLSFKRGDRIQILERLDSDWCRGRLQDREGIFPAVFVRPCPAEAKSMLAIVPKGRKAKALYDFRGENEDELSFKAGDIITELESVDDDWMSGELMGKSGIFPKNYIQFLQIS
Sequence of UniProt Q9BWE0 (Q9BWE0 whole entry): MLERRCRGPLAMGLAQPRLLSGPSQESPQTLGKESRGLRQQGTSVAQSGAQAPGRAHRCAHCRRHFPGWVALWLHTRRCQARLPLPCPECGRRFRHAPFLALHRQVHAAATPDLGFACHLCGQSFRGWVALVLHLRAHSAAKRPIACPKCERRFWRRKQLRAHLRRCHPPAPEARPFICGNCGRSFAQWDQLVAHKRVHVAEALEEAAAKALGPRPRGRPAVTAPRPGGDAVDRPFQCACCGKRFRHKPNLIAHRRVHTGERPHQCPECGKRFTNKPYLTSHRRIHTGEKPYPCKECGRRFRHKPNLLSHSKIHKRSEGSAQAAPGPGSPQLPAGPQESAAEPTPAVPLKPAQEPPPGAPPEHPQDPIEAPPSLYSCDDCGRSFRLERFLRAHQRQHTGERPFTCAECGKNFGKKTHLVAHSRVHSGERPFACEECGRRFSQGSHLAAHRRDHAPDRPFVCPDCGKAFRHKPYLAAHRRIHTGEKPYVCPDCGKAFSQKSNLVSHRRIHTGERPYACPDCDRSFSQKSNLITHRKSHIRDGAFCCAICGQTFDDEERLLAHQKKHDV
Sequence of UniProt P05141 (P05141 whole entry): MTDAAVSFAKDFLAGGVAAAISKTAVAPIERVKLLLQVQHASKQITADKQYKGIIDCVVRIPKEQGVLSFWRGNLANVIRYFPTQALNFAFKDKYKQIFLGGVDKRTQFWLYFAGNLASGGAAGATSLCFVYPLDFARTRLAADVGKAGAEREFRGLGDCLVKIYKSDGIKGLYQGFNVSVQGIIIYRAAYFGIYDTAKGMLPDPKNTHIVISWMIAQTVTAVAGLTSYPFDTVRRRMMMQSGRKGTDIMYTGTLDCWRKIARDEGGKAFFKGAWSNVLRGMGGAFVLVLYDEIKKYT
Sequence of UniProt P30711 (P30711 whole entry): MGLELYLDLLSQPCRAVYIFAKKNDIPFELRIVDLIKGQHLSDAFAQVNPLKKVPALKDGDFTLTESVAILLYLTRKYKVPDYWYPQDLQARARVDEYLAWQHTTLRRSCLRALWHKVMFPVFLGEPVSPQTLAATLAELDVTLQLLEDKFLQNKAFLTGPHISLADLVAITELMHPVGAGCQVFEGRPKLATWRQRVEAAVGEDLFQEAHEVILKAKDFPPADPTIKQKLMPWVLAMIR
Sequence of UniProt P62256 (P62256 whole entry): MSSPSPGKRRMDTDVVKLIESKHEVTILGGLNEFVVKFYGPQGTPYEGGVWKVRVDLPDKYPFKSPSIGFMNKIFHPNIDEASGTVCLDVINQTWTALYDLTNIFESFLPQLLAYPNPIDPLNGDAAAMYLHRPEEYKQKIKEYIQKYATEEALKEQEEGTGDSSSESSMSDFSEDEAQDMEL
Sequence of UniProt Q99755 (Q99755 whole entry): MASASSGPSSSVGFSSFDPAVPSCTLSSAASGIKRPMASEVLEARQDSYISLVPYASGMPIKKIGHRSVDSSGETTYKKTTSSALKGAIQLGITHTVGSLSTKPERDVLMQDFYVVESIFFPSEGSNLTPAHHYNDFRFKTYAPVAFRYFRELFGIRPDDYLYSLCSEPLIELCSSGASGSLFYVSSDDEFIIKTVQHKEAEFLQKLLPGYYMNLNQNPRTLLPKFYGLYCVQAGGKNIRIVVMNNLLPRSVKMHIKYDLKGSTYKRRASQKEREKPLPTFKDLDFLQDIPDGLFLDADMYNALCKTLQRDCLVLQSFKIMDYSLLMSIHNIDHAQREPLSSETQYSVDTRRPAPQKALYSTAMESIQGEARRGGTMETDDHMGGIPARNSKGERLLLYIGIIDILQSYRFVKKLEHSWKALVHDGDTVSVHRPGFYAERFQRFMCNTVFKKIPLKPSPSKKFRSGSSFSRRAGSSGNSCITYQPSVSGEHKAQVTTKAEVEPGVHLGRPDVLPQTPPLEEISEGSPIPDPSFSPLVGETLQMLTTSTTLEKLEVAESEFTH
Sequence of UniProt Q6P1N9 (Q6P1N9 whole entry): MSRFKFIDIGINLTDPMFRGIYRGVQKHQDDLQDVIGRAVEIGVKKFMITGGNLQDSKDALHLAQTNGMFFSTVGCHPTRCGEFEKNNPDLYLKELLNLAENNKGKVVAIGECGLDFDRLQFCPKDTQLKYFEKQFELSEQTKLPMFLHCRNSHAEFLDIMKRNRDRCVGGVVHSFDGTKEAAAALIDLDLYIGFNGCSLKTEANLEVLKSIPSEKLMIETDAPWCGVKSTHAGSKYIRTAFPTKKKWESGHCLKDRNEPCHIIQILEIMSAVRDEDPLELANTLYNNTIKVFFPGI
Sequence of UniProt Q00577 (Q00577 whole entry): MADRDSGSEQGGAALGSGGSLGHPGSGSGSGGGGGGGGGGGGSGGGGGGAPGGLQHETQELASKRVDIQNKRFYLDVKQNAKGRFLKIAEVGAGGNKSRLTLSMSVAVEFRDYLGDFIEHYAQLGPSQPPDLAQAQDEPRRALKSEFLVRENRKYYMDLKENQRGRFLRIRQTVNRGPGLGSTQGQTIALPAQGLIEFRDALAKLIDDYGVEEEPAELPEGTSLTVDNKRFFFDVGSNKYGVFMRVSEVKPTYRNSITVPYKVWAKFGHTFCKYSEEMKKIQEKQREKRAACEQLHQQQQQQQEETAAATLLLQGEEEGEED
Sequence of UniProt Q8NCH0 (Q8NCH0 whole entry): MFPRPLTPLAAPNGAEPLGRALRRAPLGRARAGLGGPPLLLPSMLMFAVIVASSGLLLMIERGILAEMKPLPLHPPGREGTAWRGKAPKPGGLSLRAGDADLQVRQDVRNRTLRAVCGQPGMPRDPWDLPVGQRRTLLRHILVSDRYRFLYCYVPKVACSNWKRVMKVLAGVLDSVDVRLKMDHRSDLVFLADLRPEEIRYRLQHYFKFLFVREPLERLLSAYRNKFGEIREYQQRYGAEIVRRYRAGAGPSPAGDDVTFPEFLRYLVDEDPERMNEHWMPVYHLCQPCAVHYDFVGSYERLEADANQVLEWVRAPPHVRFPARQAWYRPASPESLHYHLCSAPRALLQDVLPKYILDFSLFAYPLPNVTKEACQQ
Sequence of UniProt P17096 (P17096 whole entry): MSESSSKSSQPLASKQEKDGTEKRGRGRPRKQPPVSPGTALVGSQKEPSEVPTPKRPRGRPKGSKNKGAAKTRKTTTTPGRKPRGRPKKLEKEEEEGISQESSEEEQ

Target	thermal stability z-score
CAPNS1 (UniProt P04632)	0.0106
RPL4 (UniProt P36578)	-0.66
GSTT1 (UniProt P30711)	-0.279
SLC9A3R1 (UniProt O14745)	-0.36
STK3 (UniProt Q13188)	0.098
DNPEP (UniProt Q9ULA0)	0.248
PURA (UniProt Q00577)	-0.0389
CWC15 (UniProt Q9P013)	-0.193
UBE2H (UniProt P62256)	0.295
SH3D19 (UniProt Q5HYK7)	0.228
ANKLE2 (UniProt Q86XL3)	0.76
RRP12 (UniProt Q5JTH9)	0.0662
PIP5K1A (UniProt Q99755)	0.951
CHST14 (UniProt Q8NCH0)	-0.359
RPS25 (UniProt P62851)	-0.573
GSK3B (UniProt P49841)	0.326
EYA4 (UniProt O95677)	0.168
LTV1 (UniProt Q96GA3)	1.01
SLC25A5 (UniProt P05141)	0.562
STEAP4 (UniProt Q687X5)	0.565
HMGA1 (UniProt P17096)	-0.692
ALG10|ALG10B	-0.0103
KDM4A (UniProt O75164)	-0.178
TATDN1 (UniProt Q6P1N9)	0.169
ATPIF1 (UniProt Q9UII2)	-0.206
VPS37A (UniProt Q8NEZ2)	0.0736
REPIN1 (UniProt Q9BWE0)	0.53
RPS6 (UniProt P62753)	-0.404
RPRD2 (UniProt Q5VT52)	0.719
PUM1 (UniProt Q14671)	-0.174

compound: NC(=O)CCCCC1CCSS1 [lipoamide]; assay: as above; conditions: HeLa; lipoamide concentration 100 µM; arsenate co-treatment: 1 mM arsenate 1 h
Experimental: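 Cellular thermal proteome profiling in HeLa cells. Cells were treated with 100 µM lipoamide for 1 h, with or without 1 mM arsenate for a further 1 h, then heated to ten temperatures (37-66.3 °C), and soluble protein was quantified by TMT mass spectrometry relative to 0.1% DMSO controls. The thermal stability score (sum of log2 fold changes minus the abundance score) was transformed to a z-score; mean of n = 3 experiments.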

Target	thermal stability z-score
CAPNS1 (UniProt P04632)	0.532
RPL4 (UniProt P36578)	0.486
GSTT1 (UniProt P30711)	1.07
SLC9A3R1 (UniProt O14745)	0.348
STK3 (UniProt Q13188)	-0.139
DNPEP (UniProt Q9ULA0)	-0.183
PURA (UniProt Q00577)	0.195
CWC15 (UniProt Q9P013)	1.65
UBE2H (UniProt P62256)	0.213
SH3D19 (UniProt Q5HYK7)	0.277
ANKLE2 (UniProt Q86XL3)	-1.08
RRP12 (UniProt Q5JTH9)	0.612
PIP5K1A (UniProt Q99755)	-0.948
CHST14 (UniProt Q8NCH0)	-0.943
RPS25 (UniProt P62851)	0.792
GSK3B (UniProt P49841)	-0.109
EYA4 (UniProt O95677)	0.0211
LTV1 (UniProt Q96GA3)	0.231
SLC25A5 (UniProt P05141)	0.657
STEAP4 (UniProt Q687X5)	0.438
HMGA1 (UniProt P17096)	-0.361
ALG10|ALG10B	0.489
KDM4A (UniProt O75164)	-0.16
TATDN1 (UniProt Q6P1N9)	0.263
ATPIF1 (UniProt Q9UII2)	0.646
VPS37A (UniProt Q8NEZ2)	0.0547
REPIN1 (UniProt Q9BWE0)	-0.686
RPS6 (UniProt P62753)	1.06
RPRD2 (UniProt Q5VT52)	1.99
PUM1 (UniProt Q14671)	-0.249

same assay, conditions: HeLa; lipoamide concentration 100 µM; arsenate co-treatment: none

Target	thermal stability z-score
CAPNS1 (UniProt P04632)	0.582
RPL4 (UniProt P36578)	0.0127
GSTT1 (UniProt P30711)	0.0783
SLC9A3R1 (UniProt O14745)	0.362
STK3 (UniProt Q13188)	-0.0255
DNPEP (UniProt Q9ULA0)	0.0127
PURA (UniProt Q00577)	-0.028
CWC15 (UniProt Q9P013)	0.526
UBE2H (UniProt P62256)	-0.108
SH3D19 (UniProt Q5HYK7)	0.225
ANKLE2 (UniProt Q86XL3)	-0.166
RRP12 (UniProt Q5JTH9)	0.819
PIP5K1A (UniProt Q99755)	-0.813
CHST14 (UniProt Q8NCH0)	-0.167
RPS25 (UniProt P62851)	0.586
GSK3B (UniProt P49841)	-0.308
EYA4 (UniProt O95677)	-0.116
LTV1 (UniProt Q96GA3)	-0.172
SLC25A5 (UniProt P05141)	0.589
STEAP4 (UniProt Q687X5)	0.75
HMGA1 (UniProt P17096)	0.993
ALG10|ALG10B	-0.122
KDM4A (UniProt O75164)	-0.11
TATDN1 (UniProt Q6P1N9)	0.514
ATPIF1 (UniProt Q9UII2)	0.505
VPS37A (UniProt Q8NEZ2)	0.243
REPIN1 (UniProt Q9BWE0)	-0.309
RPS6 (UniProt P62753)	0.834
RPRD2 (UniProt Q5VT52)	1.64
PUM1 (UniProt Q14671)	-0.0302
